Assay results published in PubChem BioAssay AID256 (DTP/NCI, 2004).
Values joined by “and” are separate entries in the source; they are usually repeats but may differ in a detail not shown here. Equal entries are not always repeated. Inconclusive results and toxic doses are left out. Rule for the calls: active = survival T/C of 150% or more; inactive = T/C below 125% in these data.

System: CD2F1 mice, L1210 leukemia ip, survival T/C
Test: NCI In Vivo Anticancer Drug Screen. Data for tumor model L1210 Leukemia (intraperitoneal) in CD2F1 (CDF1) mice
Details: endpoint: mean survival time, higher = longer survival
How it was run: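 Implant tumor; dose compound or vehicle; measure endpoint in both groups; report treated divided by control.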

[1] = dose: 25.0 mg/kg/injection, schedule: Q01DX009 (ip), vehicle: saline
[2] = dose: 50.0 mg/kg/injection, schedule: Q01DX009 (ip), vehicle: saline
[3] = dose: 100.0 mg/kg/injection, schedule: Q01DX001 (ip), vehicle: saline
[4] = dose: 100.0 mg/kg/injection, schedule: Q01DX009 (ip), vehicle: saline
[5] = dose: 100.0 mg/kg/injection, schedule: Q04DX003 (ip), vehicle: saline
[6] = dose: 200.0 mg/kg/injection, schedule: Q01DX001 (ip), vehicle: saline
[7] = dose: 200.0 mg/kg/injection, schedule: Q01DX009 (ip), vehicle: saline
[8] = dose: 200.0 mg/kg/injection, schedule: Q04DX003 (ip), vehicle: saline
[9] = dose: 400.0 mg/kg/injection, schedule: Q01DX001 (ip), vehicle: saline
[10] = dose: 100.0 mg/kg/injection, schedule: Q04DX003 (ip), vehicle: saline with Tween-80
[11] = dose: 200.0 mg/kg/injection, schedule: Q04DX003 (ip), vehicle: saline with Tween-80
[12] = dose: 400.0 mg/kg/injection, schedule: Q04DX003 (ip), vehicle: saline with Tween-80
[13] = dose: 100.0 mg/kg/injection, schedule: Q01DX009 (ip), vehicle: saline with Tween-80
[14] = dose: 400.0 mg/kg/injection, schedule: Q04DX003 (ip), vehicle: saline
[15] = dose: 200.0 mg/kg/injection, schedule: Q01DX009 (ip), vehicle: saline with Tween-80
[16] = dose: 400.0 mg/kg/injection, schedule: Q01DX009 (ip), vehicle: saline with Tween-80

Measured: T/C

O=S(=O)(O)c1ccc(-c2ccc(S(=O)(=O)O)cc2)cc1
inactive: dose: 6.3 mg/kg/injection, schedule: Q01DX009 (ip), vehicle: saline 104 % of control | dose: 6.3 mg/kg/injection, schedule: Q04DX003 (ip), vehicle: saline 102 % of control | dose: 12.5 mg/kg/injection, schedule: Q01DX001 (ip), vehicle: saline 101 % of control | dose: 12.5 mg/kg/injection, schedule: Q01DX009 (ip), vehicle: saline 104 % of control | dose: 12.5 mg/kg/injection, schedule: Q04DX003 (ip), vehicle: saline 100 % of control | dose: 25.0 mg/kg/injection, schedule: Q01DX001 (ip), vehicle: saline 103 % of control | [1] 101 % of control | dose: 25.0 mg/kg/injection, schedule: Q04DX003 (ip), vehicle: saline 100 % of control | dose: 50.0 mg/kg/injection, schedule: Q01DX001 (ip), vehicle: saline 101 % of control | [2] 104 % of control | dose: 50.0 mg/kg/injection, schedule: Q04DX003 (ip), vehicle: saline 93 % of control | [3] 100 % of control and 108 % of control | [4] 106 % of control | [5] 103 % of control | [6] 100 % of control and 105 % of control | [7] 98 % of control | [8] 100 % of control | [9] 104 % of control and 107 % of control

CCCCCCCC1SC(=S)NC1=O (stereo unspecified)
inactive: dose: 12.5 mg/kg/injection, schedule: Q01DX009 (ip), vehicle: other 95 % of control | dose: 25.0 mg/kg/injection, schedule: Q01DX009 (ip), vehicle: other 89 % of control | dose: 50.0 mg/kg/injection, schedule: Q01DX009 (ip), vehicle: other 100 % of control | dose: 100.0 mg/kg/injection, schedule: Q01DX009 (ip), vehicle: other 91 % of control

COC(=O)CC1(C)C(=O)CCC2(C)C1=CCc1ccc(OC)cc12 (stereo unspecified)
inactive: dose: 100.0 mg/kg/injection, schedule: Q01DX001 (sc), vehicle: steriod suspending solution 102 % of control | dose: 200.0 mg/kg/injection, schedule: Q01DX001 (sc), vehicle: steriod suspending solution 96 % of control | dose: 400.0 mg/kg/injection, schedule: Q01DX001 (sc), vehicle: steriod suspending solution 101 % of control

Cn1c(=O)c2c(nc(Cl)n2Cc2ccccc2)n(C)c1=O
inactive: dose: 12.5 mg/kg/injection, schedule: Q01DX005 (ip), vehicle: saline with Tween-80 93 % of control | dose: 25.0 mg/kg/injection, schedule: Q01DX005 (ip), vehicle: saline with Tween-80 88 % of control | dose: 50.0 mg/kg/injection, schedule: Q01DX005 (ip), vehicle: saline with Tween-80 87 % of control | dose: 100.0 mg/kg/injection, schedule: Q01DX005 (ip), vehicle: saline with Tween-80 93 % of control

CCCCOC1CCC(O)C2CCCCC12 (stereo unspecified)
inactive: [10] 105 % of control | [11] 96 % of control | [12] 104 % of control

CC(=O)c1cc2c(cc1C(C)C)CC[C@H]1[C@](C)(C#N)CCC[C@]21C
inactive: dose: 25.0 mg/kg/injection, schedule: Q01DX009 (ip), vehicle: saline with Tween-80 104 % of control | dose: 50.0 mg/kg/injection, schedule: Q01DX009 (ip), vehicle: saline with Tween-80 90 % of control | [13] 98 % of control | [10] 87 % of control

CC(C)=CCC/C(C)=C/CN
inactive: [1] 98 % of control | [5] 86 % of control

O=[N+]([O-])c1ccc(N/N=C(\CO)c2ccccc2)c([N+](=O)[O-])c1
inactive: [5] 109 % of control | [8] 97 % of control | [14] 108 % of control

COC(=O)C/C(=C/C=C1/C(=O)ON=C1C)c1c(C)[nH]oc1=O
inactive: [4] 87 % of control | [5] 101 % of control | [7] 92 % of control | [8] 106 % of control | dose: 400.0 mg/kg/injection, schedule: Q01DX009 (ip), vehicle: saline 87 % of control | [14] 108 % of control

CO[C@]12[C@@H](COC(N)=O)C3=C(C(=O)C(C)=C(NCCCO)C3=O)N1C[C@@H]1[C@H]2N1C (stereo partly specified)
inactive: dose: 1.5 mg/kg/injection, schedule: Q01DX001 (ip), vehicle: water 101 % of control | dose: 3.0 mg/kg/injection, schedule: Q01DX001 (ip), vehicle: water 101 % of control | dose: 6.0 mg/kg/injection, schedule: Q01DX001 (ip), vehicle: water 102 % of control | dose: 12.0 mg/kg/injection, schedule: Q01DX001 (ip), vehicle: water 107 % of control | dose: 18.75 mg/kg/injection, schedule: Q01DX001 (ip), vehicle: distilled water + Tween-80 104 % of control | dose: 24.0 mg/kg/injection, schedule: Q01DX001 (ip), vehicle: water 101 % of control | dose: 36.0 mg/kg/injection, schedule: Q01DX001 (ip), vehicle: water 102 % of control | dose: 37.5 mg/kg/injection, schedule: Q01DX001 (ip), vehicle: distilled water + Tween-80 107 % of control | dose: 75.0 mg/kg/injection, schedule: Q01DX001 (ip), vehicle: distilled water + Tween-80 107 % of control | dose: 150.0 mg/kg/injection, schedule: Q01DX001 (ip), vehicle: distilled water + Tween-80 116 % of control

O=C1CCCC1CC1CCCC1=O (stereo unspecified)
inactive: [13] 102 % of control | [15] 106 % of control | [16] 106 % of control

O=Cc1cc(C(=O)O)ccc1O
inactive: [3] 100 % of control | [6] 97 % of control | [9] 94 % of control

NC(CCC(=O)NCc1ccc(S(=O)(=O)F)cc1)C(=O)O (stereo unspecified)
inactive: [2] 92 % of control | [4] 96 % of control | [7] 92 % of control

CCCCCCCCCCCCCCC[N+]1(CC)CCCCC1
inactive: dose: 0.09 mg/kg/injection, schedule: Q01DX009 (ip), vehicle: saline 102 % of control | dose: 0.19 mg/kg/injection, schedule: Q01DX009 (ip), vehicle: saline 102 % of control | dose: 0.39 mg/kg/injection, schedule: Q01DX009 (ip), vehicle: saline 115 % of control | dose: 0.78 mg/kg/injection, schedule: Q01DX009 (ip), vehicle: saline 103 % of control

CC(=O)CC(C)(C)O
inactive: [13] 95 % of control | dose: 100.0 mg/kg/injection, schedule: Q04DX003 (ip), vehicle: saline sonified 102 % of control | [15] 96 % of control | dose: 200.0 mg/kg/injection, schedule: Q04DX003 (ip), vehicle: saline sonified 100 % of control | [16] 95 % of control | dose: 400.0 mg/kg/injection, schedule: Q04DX003 (ip), vehicle: saline sonified 97 % of control

CCOC1(C)CCC/C(=N/Nc2ccc([N+](=O)[O-])cc2[N+](=O)[O-])C1 (stereo unspecified)
inactive: dose: 100.0 mg/kg/injection, schedule: Q04DX003 (ip), vehicle: Klucel (hydroxypropylcellulose) (HPC) 97 % of control | dose: 200.0 mg/kg/injection, schedule: Q04DX003 (ip), vehicle: Klucel (hydroxypropylcellulose) (HPC) 100 % of control | dose: 400.0 mg/kg/injection, schedule: Q04DX003 (ip), vehicle: Klucel (hydroxypropylcellulose) (HPC) 100 % of control

N#C/C(=C\c1c(Cl)cccc1Cl)c1ccc([N+](=O)[O-])cc1
inactive: [13] 97 % of control | [15] 88 % of control | [16] 91 % of control

O=C(Cl)c1ccccc1Sc1ccccc1
inactive: [10] 87 % of control

O=C1CCCCCCCCC1O (stereo unspecified)
inactive: [10] 102 % of control | [11] 103 % of control | [12] 96 % of control

O=C(O)c1cccc(COc2ccc([N+](=O)[O-])cc2Cl)c1
inactive: [13] 101 % of control | [10] 91 % of control | [15] 93 % of control | [11] 86 % of control | [12] 97 % of control
